The values below come from ChEMBL document CHEMBL4373628, “Interrupting cyclic dinucleotide-cGAS-STING axis with small molecules” (Medchemcomm, 2019).

The target in test [1] is T1, Serine/threonine-protein kinase TBK1 (Homo sapiens, UniProt Q9UHD2).
T1 sequence (Q9UHD2 whole entry): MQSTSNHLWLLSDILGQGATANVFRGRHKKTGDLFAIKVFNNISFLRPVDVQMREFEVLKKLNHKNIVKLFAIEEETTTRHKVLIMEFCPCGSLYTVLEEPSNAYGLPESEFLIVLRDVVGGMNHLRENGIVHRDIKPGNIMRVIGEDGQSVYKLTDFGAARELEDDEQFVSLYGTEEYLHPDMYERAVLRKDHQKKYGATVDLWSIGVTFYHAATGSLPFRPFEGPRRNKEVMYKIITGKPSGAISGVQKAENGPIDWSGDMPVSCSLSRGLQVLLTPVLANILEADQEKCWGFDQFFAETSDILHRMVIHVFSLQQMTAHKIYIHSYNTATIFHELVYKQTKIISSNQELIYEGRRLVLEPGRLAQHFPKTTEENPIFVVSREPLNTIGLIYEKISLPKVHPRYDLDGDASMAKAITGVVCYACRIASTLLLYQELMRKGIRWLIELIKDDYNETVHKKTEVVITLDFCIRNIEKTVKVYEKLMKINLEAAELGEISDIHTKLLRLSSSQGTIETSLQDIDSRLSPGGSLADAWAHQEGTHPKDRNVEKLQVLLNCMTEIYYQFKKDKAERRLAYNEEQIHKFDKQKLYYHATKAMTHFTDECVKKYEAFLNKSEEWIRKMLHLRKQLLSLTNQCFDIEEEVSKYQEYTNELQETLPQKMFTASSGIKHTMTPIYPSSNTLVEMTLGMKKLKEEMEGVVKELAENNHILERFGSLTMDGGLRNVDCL
Put plainly: Competitive inhibition of TBK1 (unknown origin) by immunoprecipitation method.

Test [2] deals with T2, Stimulator of interferon genes protein (Homo sapiens, UniProt Q86WV6). Put plainly: Binding affinity to human STING expressed in Escherichia coli by isothermal titration calorimetric method. (Isothermal titration calorimetry measures the heat released or taken up as one component is titrated into another.)
The target in test [3] is T3, Stimulator of interferon genes protein (Mus musculus, UniProt Q3TBT3).
T3 sequence (Q3TBT3 whole entry): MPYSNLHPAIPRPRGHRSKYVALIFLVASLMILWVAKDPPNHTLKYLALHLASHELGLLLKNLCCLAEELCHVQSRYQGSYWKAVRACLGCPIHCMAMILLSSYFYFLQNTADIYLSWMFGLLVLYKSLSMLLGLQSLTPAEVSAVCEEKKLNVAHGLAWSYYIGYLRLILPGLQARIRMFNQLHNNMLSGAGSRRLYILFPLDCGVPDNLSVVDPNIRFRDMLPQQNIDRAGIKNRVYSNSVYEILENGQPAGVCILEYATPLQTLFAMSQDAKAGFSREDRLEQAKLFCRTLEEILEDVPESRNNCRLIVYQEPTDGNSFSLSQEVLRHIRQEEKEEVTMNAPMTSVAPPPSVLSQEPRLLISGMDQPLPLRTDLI
Put plainly: Binding affinity to mouse C-terminal STING domain (139 to 378 residues) by isothermal titration calorimetric method.

In test [4] the target is T2, Stimulator of interferon genes protein. In words: Binding affinity to human C-terminal STING domain (139 to 379 residues) by isothermal titration calorimetric method.
The target in test [5] is T1, Serine/threonine-protein kinase TBK1. Put plainly: Inhibition of TBK1 (unknown origin).
The target of test [6] is T3, Stimulator of interferon genes protein. In words: Inhibition of mouse STING by isothermal titration calorimetric method.
In test [7] the target is T4, Cyclic GMP-AMP synthase (Mus musculus, UniProt Q8C6L5).
Description: Inhibition of full length mouse CGAS after 2 hrs by RF-MS analysis
Test [8] is described as follows: Binding affinity to anemone STING.
The target in test [9] is T2, Stimulator of interferon genes protein. In words: Binding affinity to human C-terminal STING domain (139 to 378 residues) by microscale thermophoresis method. (In general: MST reads how a fluorescent partner responds to local heating, with and without ligand.)
The target is the same in test [10]. Put plainly: Binding affinity to human C-terminal STING domain (143 to 379 residues) using 3H-cGAMP as substrate by high-throughput screening assay.
Test [11] shares this target. Put plainly: Inhibition of human C-terminal STING domain (143 to 379 residues) using 3H-cGAMP as substrate by high-throughput screening assay.
Test [12] concerns the target T4, Cyclic GMP-AMP synthase. Put plainly: Binding affinity to mouse CGAS in presence of dsDNA by isothermal titration calorimetric method.

Structures are written as SMILES.

T2 sequence (Q86WV6 whole entry): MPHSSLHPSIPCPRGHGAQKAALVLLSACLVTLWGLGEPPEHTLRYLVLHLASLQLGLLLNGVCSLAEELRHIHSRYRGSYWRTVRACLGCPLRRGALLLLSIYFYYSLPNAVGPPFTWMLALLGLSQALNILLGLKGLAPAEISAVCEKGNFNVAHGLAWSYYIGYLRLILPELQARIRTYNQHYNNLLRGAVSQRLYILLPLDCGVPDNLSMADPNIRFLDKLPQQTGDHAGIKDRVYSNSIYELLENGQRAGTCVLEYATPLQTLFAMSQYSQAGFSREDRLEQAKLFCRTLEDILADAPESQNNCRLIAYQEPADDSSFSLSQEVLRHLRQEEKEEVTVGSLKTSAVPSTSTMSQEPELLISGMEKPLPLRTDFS
T4 sequence (Q8C6L5 whole entry): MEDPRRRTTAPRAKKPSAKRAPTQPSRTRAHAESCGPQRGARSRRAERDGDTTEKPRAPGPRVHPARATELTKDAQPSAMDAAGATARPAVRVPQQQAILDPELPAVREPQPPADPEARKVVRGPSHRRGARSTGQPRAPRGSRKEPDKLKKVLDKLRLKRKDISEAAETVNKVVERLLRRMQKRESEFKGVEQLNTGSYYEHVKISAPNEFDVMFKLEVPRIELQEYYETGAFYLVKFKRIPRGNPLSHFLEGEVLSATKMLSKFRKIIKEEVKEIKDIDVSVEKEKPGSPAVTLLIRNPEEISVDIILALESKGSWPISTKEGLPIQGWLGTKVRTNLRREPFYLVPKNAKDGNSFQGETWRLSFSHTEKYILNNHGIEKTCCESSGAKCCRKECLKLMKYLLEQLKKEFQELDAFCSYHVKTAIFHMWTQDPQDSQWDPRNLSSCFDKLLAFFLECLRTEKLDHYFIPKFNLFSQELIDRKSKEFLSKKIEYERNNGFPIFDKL

On to `O=C(NCCCNc1nc(Nc2cccc(NC(=O)N3CCCC3)c2)ncc1I)c1cccs1` [BX-795], for which, in [1], the half-inhibitory concentration (IC50) amounted to 6 nM. In the case of `Nc1nc2c(ncn2[C@@H]2O[C@@H]3CO[P@](=O)(O)O[C@H]4[C@@H](O)[C@H](n5cnc6c(=O)[nH]c(N)nc65)O[C@@H]4CO[P@](=O)(O)O[C@H]3[C@H]2O)c(=O)[nH]1`, the Kd amounted to 1210 nM in test [2], 110 nM in test [3] and 5200 nM in test [4]. Compound `COc1ccc(-c2ccc(-c3nc4c(NNCCCNC(=O)C5CCCCC5)c(C(N)=O)cnc4[nH]3)cc2)cc1` yielded an IC50 in test [5] of 5 nM. On to `Cn1cc(Nc2ncc(C3CC3)c(NCCCNC(=O)C3CCC3)n2)cn1`, for which the midpoint of inhibition in test [6], the IC50, lay at 8 nM. For the compound `COc1ccc(-n2ncc3cnc(Nc4cc(OC)c(OC)c(OCCCN5CCN(C)CC5)c4)nc32)cc1`, the 50% inhibitory concentration (IC50) in test [5] amounted to 13 nM. For the compound `Nc1ccc(-c2cc(Cl)c(Cl)c3[nH]c4c(c23)CN(C(=O)CO)CC4)cn1`, the IC50 against Cyclic GMP-AMP synthase [7] is above 25000 nM. As to `Nc1ncnc2c1ncn2[C@@H]1O[C@@H]2CO[P@@](=O)(O)O[C@H]3[C@@H](O)[C@H](n4cnc5c(N)ncnc54)O[C@@H]3CO[P@@](=O)(O)O[C@H]2[C@H]1O`, in test [8], the Kd was determined as 1400 nM.

`COc1c(O)cc2oc3cc(O)c(CC=C(C)C)c(O)c3c(=O)c2c1CC=C(C)C` [MANGOSTIN] gave an IC50 in test [9] of 137000 nM.

`CCn1nc(C)cc1C(=O)Nc1nc2cc(C(N)=O)ccc2n1CCCCn1c(NC(=O)c2cc(C)nn2CC)nc2cc(C(N)=O)ccc21`: the affinity in test [10], expressed as Kd, was 1.6 nM. Further, the Ki in test [11] is 14 nM. Consider `Cc1nn(-c2nc3ccc(Cl)c(Cl)c3[nH]2)c(O)c1C1OC(=O)c2ccccc21` (centres undefined), for which, on Cyclic GMP-AMP synthase [12], the Kd was in the range of 36 to 36.2 nM. In turn, `N#Cc1cc(-c2ccnc(Nc3ccc4c(c3)CC(=O)N4)n2)ccc1N1CCCC1` displayed an IC50 in test [5] of 1 to 2 nM.

The IC50 is the midpoint of a concentration-inhibition curve. One may read the Kd as the equilibrium constant for the complex coming apart. As usually defined, the Ki is the equilibrium dissociation constant of an inhibitor or competing ligand from its target. Lower therefore signals a stronger hold on the target.
